In assay [1] the test system is adult female rats. Put plainly: Post-coital antifertility efficacy in adult female rats. In kind it is in vivo, rat. To be noted: daily dose 10 mg/kg, oral, days 1-7 post-coitum.
Assay [2] deals with immature ovariectomized rats. Put plainly: Estrogen antagonistic activity: inhibition in 17α-ethynylestradiol induced uterine weight gain in immature ovariectomized rats. Format: in vivo, rat. To be noted: Rattus norvegicus, 72 h, 3 days, read-out: Percent inhibition in 17α-ethynylestradiol induced uterine weight gain; for inhibition in vivo at 10 mg/kg/day: daily dose 10 mg/kg with 0.02 mg/kg 17-alfa-ethynylestradiol.

Assay [3] addresses T1, estrogen receptors (Rattus norvegicus, UniProt P06211).
T1 construct: Aliquot of uterine cytosol (200 μl; 2 uteri per ml) prepared in TEA buffer; from tissue; host or cells: uterine cytosol of immature estradiol-primed 20-21 day old rats
T1 sequence (P06211 1-600): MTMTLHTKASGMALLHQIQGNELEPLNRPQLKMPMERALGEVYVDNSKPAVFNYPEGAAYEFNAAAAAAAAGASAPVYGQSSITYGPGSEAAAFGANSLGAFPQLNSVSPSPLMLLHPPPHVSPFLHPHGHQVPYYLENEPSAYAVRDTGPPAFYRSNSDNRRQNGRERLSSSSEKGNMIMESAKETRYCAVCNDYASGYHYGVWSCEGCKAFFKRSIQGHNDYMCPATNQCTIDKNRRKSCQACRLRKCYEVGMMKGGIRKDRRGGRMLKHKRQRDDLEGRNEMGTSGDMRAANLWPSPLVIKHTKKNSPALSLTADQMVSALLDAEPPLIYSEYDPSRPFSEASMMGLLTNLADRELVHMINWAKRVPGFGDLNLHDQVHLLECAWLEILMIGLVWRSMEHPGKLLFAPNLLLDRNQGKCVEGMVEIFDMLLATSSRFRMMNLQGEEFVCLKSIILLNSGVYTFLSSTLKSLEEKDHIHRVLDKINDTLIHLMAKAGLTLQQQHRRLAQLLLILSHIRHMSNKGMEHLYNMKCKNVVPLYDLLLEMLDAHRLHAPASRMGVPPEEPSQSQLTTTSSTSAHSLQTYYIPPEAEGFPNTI
Put plainly: Relative binding affinity (RBA) to estrogen receptors, 3H-estradiol competition assay. Details: key: % of 17-beta-estradiol binding affinity (estradiol = 100). To be noted: relative to 17-beta-estradiol (=100, percentage value); rat uterine cytosol, 3H-E2, 18 hrs at 4° C. In a few lines:
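Competition against a fixed concentration of ³H-estradiol for cytosolic receptor from uteri of immature (20-21 day) estradiol-primed rats, in TEA buffer pH 7.4 with ≤5% DMF, 18 h at 4° C. Free ligand removed with dextran-coated charcoal; bound radioactivity counted and RBA read from percent-bound vs log concentration plot, expressed as percentage.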

Assay [4] relates to chick fetal bones in culture. Description: Inhibition in PTH-induced resorption of 45Ca from chick fetal bones in culture (antiresorptive activity in vitro). In kind it is cell-based. The conditions noted are these: Gallus gallus, 96 h, PTH-induced 45Ca resorption, 96 h culture, read-out: T/C ratio. The method, then: 5 μl of each concentration are used for evaluation of antiresorptive activity in vitro. In control experiments, 5 μl of appropriate solvent is used in lieu of the test compound. Femur bones are isolated from chick embryos on day 11 post-ovulation. The adhering soft connective tissue is completely removed. Each femur bone is then placed in a drop of phosphate buffered saline (PBS) and is transferred to BGJb culture medium containing ^45CaCl2 and incubated for 2 h. Labeled femur bones are washed 2-3 times with PBS and transferred to BGJb medium containing parathyroid hormone and cultured for 96 h in the presence or absence of the compound of invention or the vehicle in BGJb medium. Contralateral femur of each fetus serves as corresponding control. Culture medium with the respective treatment in each well is changed after 48 h. On termination of the culture at 96 h, bones are transferred to 0.1 N HCl for 24 h. Radioactivity due to ^45Ca in the spent medium collected at 48 and 96 h of culture and HCl extract at 96 h of culture is quantified by Liquid Scintillation Spectrophotometer in 10 ml of the scintillation fluid. Bone resorbing activity is expressed as percentage of ^45Ca released into the culture medium and the effect of the compound of invention as percent of the corresponding contra-lateral control or T/C ratio as shown below: [formula]
Appropriate solvents are selected from solvents like water, physiological saline, phosphate buffered saline, phosphate buffer, DMSO alone or in a suitable combination thereof.

SMILES strings stand for the structures.

Consider `CCCCN(C)CCCCCn1c2c(c3ccccc31)CCSc1ccccc1-2` [Example number 13, 12-[5-(N-butylmethylamino)pentyl]-6,7-dihydro-12H-benzothiepino [5,4-b]indole], for which, in assay [1], the “% Efficacy” value is on record as “Inactive”. The inhibition in vivo at 1 mg/kg/day in assay [2] (daily dose 1 mg/kg with 0.02 mg/kg 17-alfa-ethynylestradiol) was found to be 12%. In addition, in assay [2], the inhibition in vivo at 10 mg/kg/day was 37%. The RBA in assay [3] is listed as under 0.001. The activity at 25 µM in assay [4] (25 μM) came out at 33%. In addition, the activity at 50 µM in assay [4] (50 μM) amounted to 41%. The activity at 200 µM in assay [4] (200 μM) is 61%.

Consider `c1ccc2c(c1)SCCc1c-2n(CCCCCCN2CCCCC2)c2ccccc12` [Example number 18, 12-[6-(Piperidine-1-yl)hexyl]-6,7-dihydro-12H-benzothiepino [5,4-b]indole], for which the “% Efficacy” value in assay [1] is listed as “Inactive”. Besides, in assay [2], the inhibition in vivo at 10 mg/kg/day is 19%. In addition, in assay [3], the RBA was found to be 0.17. In assay [4] (100 μM), the activity at 100 µM was found to be 160%.
